The text below walks through data of ChEMBL document CHEMBL5154908, “Design, Synthesis, and Biological Characterization of Inhaled p38α/β MAPK Inhibitors for the Treatment of Lung Inflammatory Diseases” (J Med Chem, 2022).

Assay [1] is described as follows: Inhibition of LPS-stimulated TNFalpha release in human PBMC cells preincubated for 1 hr followed by LPS stimulation and measured after 18 hrs. The assay is classed as functional, cell-based.
For assay [2], the target named is T1, Mitogen-activated protein kinase 14 (Homo sapiens, UniProt Q16539). Description: Inhibition of human recombinant full length GST-tagged p38alpha expressed in Escherichia coli preincubated for 2 hrs followed by ATP addition and measured after 1 hr by Alpha screen assay.
In assay [3] the target is T1, Mitogen-activated protein kinase 14. Description: Displacement of SKF-86002 from human inactivated p38alpha assessed as dissociation half life incubated for 2 hrs by fluorescence based analysis.

T1 sequence (Q16539 whole entry): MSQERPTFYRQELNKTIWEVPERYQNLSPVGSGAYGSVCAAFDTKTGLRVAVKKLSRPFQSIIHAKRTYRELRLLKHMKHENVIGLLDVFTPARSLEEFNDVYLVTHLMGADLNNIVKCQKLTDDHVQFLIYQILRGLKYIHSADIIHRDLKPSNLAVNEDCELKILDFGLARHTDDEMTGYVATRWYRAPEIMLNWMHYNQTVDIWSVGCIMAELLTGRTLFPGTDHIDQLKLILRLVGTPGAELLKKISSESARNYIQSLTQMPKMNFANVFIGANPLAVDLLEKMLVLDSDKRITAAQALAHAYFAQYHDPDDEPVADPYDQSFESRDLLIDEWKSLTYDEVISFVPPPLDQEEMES

What is called IC50 is the concentration that inhibits the measured activity by half. On to `CC(C)(C)c1cc(NC(=O)N[C@H]2CC[C@@H](Oc3ccc4nnc(N5CCCCC5)n4c3)c3ccccc32)n(-c2cccc(CN3CCNCC3)c2)n1`, for which the values for the IC50 in assay [1] and in assay [2] were 1.1 nM and 0.8 nM, respectively. Moreover, in assay [3], the T1/2 is 5 h.

On to `CN1CCN(Cc2ccc(-n3nc(C(C)(C)C)cc3NC(=O)N[C@H]3CC[C@@H](Oc4ccc5nnc(N6CCCCC6)n5c4)c4ccccc43)cc2)CC1`, for which the IC50 stood at 2.2 nM in assay [1] and 0.6 nM in assay [2]. Besides, in assay [3], the T1/2 stood at 1.4 h.

`CC(C)(C)c1cc(NC(=O)N[C@H]2CC[C@@H](Oc3ccc4nnc(N5CCC(O)CC5)n4c3)c3ccccc32)n(-c2ccc(CO)cc2)n1`: the IC50 in assay [1] is 14 nM; in assay [2] it was 0.4 nM. Further, in assay [3], the T1/2 was > 16 h.

Take `C[C@@H]1CCC[C@H](C)N1c1nnc2ccc(O[C@@H]3CC[C@H](NC(=O)Nc4cc(C(C)(C)C)nn4-c4cccc(OCCN(C)C)c4)c4ccccc43)cn12`: the IC50 in assay [1] came out at 1 nM; in assay [2], 0.3 nM. Also, in assay [3], the T1/2 was > 16 h.

Regarding `C[C@H]1CCCCC1c1nnc2ccc(O[C@@H]3CC[C@H](NC(=O)Nc4cc(C(C)(C)C)nn4-c4cccc(OCCN5CCOCC5)c4)c4ccccc43)cn12` (stereo partly specified), the IC50 amounted to 0.8 nM in assay [1] and 0.5 nM in assay [2]. Also, in assay [3], the T1/2 is > 16 h.

Turning to `Cc1ccc(-n2nc(C(C)(C)C)cc2NC(=O)N[C@H]2CC[C@@H](Oc3ccc4nnc(C5CCCC5)n4c3)c3ccccc32)cc1`, the results for the IC50 in assay [1] and in assay [2] were 0.3 nM and 0.1 nM, respectively. In assay [3], the T1/2 was > 16 h.

Turning to `Cc1ccc(-n2nc(C(C)(C)C)cc2NC(=O)N[C@H]2CC[C@H](Oc3ccc4nnc(C(C)C)n4c3)c3ccccc32)cc1`, the 50% inhibitory concentration (IC50) in assay [1] and in assay [2] was 0.1 nM in each case. Moreover, the T1/2 in assay [3] was > 16 h.

Turning to `CC(C)c1nnc2ccc(O[C@@H]3CC[C@H](NC(=O)Nc4cc(C(C)(C)C)nn4C)c4ccccc43)cn12`, the IC50 in assay [1] was determined as 3.9 nM; in assay [2], 0.3 nM. Also, the T1/2 in assay [3] was 0.07 h.

With `C[C@H]1CCCCN1c1nnc2ccc(O[C@@H]3CC[C@H](NC(=O)Nc4cc(C(C)(C)C)nn4-c4cccc(OCCN5CCN(C)CC5)c4)c4ccccc43)cn12`, the figures for the IC50 in assay [1] and in assay [2] were 2.1 nM and 0.3 nM, respectively. Also, the T1/2 in assay [3] came out at 5.1 h.

Regarding `CC(C)c1nnc2ccc(O[C@@H]3CC[C@H](NC(=O)Nc4cc(C(C)(C)C)nn4-c4ccc(Cl)c(O)c4)c4ccccc43)cn12`, the IC50 in assay [1] worked out at 0.7 nM; in assay [2] it was 0.05 nM. Moreover, the T1/2 in assay [3] is 0.89 h.

For `Cc1ccc(-n2nc(C(C)(C)C)cc2NC(=O)N[C@H]2CC[C@@H](Oc3ccc4nnc(N5CCC(O)CC5)n4c3)c3ccccc32)cc1`, the figures for the IC50 in assay [1] and in assay [2] were 2.1 nM and 0.5 nM, respectively. For the same compound, the T1/2 in assay [3] is > 16 h.

`CN(C)CCOc1cc(-n2nc(C(C)(C)C)cc2NC(=O)N[C@H]2CC[C@@H](Oc3ccc4nnc(N5CCCCC5)n4c3)c3ccccc32)ccc1Cl`: the IC50 in assay [1] came to 1.4 nM; in assay [2] it was 0.2 nM. The T1/2 in assay [3] came out at 3.5 h.

Turning to `CC(C)c1nnc2ccc(O[C@@H]3CC[C@H](NC(=O)Nc4cc(C(C)(C)C)nn4-c4ccccc4)c4ccccc43)cn12`, the IC50 turned out to be 0.5 nM in assay [1] and 0.06 nM in assay [2]. The T1/2 in assay [3] was 1.74 h.

On to `C[C@H]1CCCCN1c1nnc2ccc(O[C@@H]3CC[C@H](NC(=O)Nc4cc(C(C)(C)C)nn4-c4cnn(CCN5CCOCC5)c4)c4ccccc43)cn12`, for which the IC50 came to 1.8 nM in assay [1] and 0.5 nM in assay [2]. In assay [3], the T1/2 was > 16 h.

Regarding `CN(C)CCOc1cccc(-n2nc(C(C)(C)C)cc2NC(=O)N[C@H]2CC[C@@H](Oc3ccc4nnc(N5CCCCC5)n4c3)c3ccccc32)c1`, the IC50 in assay [1] was determined as 1.3 nM; in assay [2] it was 0.6 nM. In assay [3], the T1/2 is 3.6 h.

Take `Cc1ccc(-n2nc(C(C)(C)C)cc2NC(=O)N[C@H]2CC[C@@H](Oc3ccc4nnc(N5CCOCC5)n4c3)c3ccccc32)cc1`: the IC50 came out at 0.9 nM in assay [1] and 1.1 nM in assay [2]. In addition, in assay [3], the T1/2 worked out at 5.8 h.

Turning to `C[C@H]1CCCCN1c1nnc2ccc(O[C@@H]3CC[C@H](NC(=O)Nc4cc(C(C)(C)C)nn4-c4ccn(CCN(C)C)n4)c4ccccc43)cn12`, the IC50 in assay [1] was 2.7 nM; in assay [2], 0.2 nM. Besides, the T1/2 in assay [3] is 1.9 h.

For `C[C@H]1CCCCN1c1nnc2ccc(O[C@@H]3CC[C@H](NC(=O)Nc4cc(C(C)(C)C)nn4-c4cnnc(OCCN(C)C)c4)c4ccccc43)cn12`, the IC50 in assay [1] came out at 1.2 nM; in assay [2] it was 0.3 nM. Also, in assay [3], the T1/2 came out at 1.1 h.

For `C[C@H]1CCCCN1c1nnc2ccc(O[C@@H]3CC[C@H](NC(=O)Nc4cc(C(C)(C)C)nn4-c4cccc(OCCN(C)C)n4)c4ccccc43)cn12`, the concentration for half-maximal inhibition (IC50) in assay [1] was 5.8 nM; in assay [2], 2 nM. Also, in assay [3], the T1/2 stood at 2.9 h.

With `Cc1ccc(-n2nc(C(C)(C)C)cc2NC(=O)N[C@H]2CC[C@@H](Oc3ccc4nnc(N5CCCC5)n4c3)c3ccccc32)cc1`, the half-maximal inhibitory concentration (IC50) in assay [1] is 0.3 nM; in assay [2], 0.5 nM. In addition, in assay [3], the T1/2 was > 16 h.

Take `CC(C)(C)c1cc(NC(=O)N[C@H]2CC[C@@H](Oc3ccc4nnc(N5CCCCC5)n4c3)c3ccccc32)n(-c2ccc(Cl)c(O)c2)n1`: the IC50 in assay [1] was 0.2 nM; in assay [2], 0.5 nM. In addition, the T1/2 in assay [3] is > 16 h.

For the compound `C[C@H]1CCCCN1c1nnc2ccc(O[C@@H]3CC[C@H](NC(=O)Nc4cc(C(C)(C)C)nn4-c4cnn(CCN5CCC(O)CC5)c4)c4ccccc43)cn12`, the IC50 in assay [1] came out at 5.1 nM; in assay [2], 0.4 nM. For the same compound, in assay [3], the T1/2 was > 16 h.

As to `Cc1ccc(-n2nc(C(C)(C)C)cc2NC(=O)N[C@H]2CC[C@@H](Oc3ccc4nnc(C5CCCCC5)n4c3)c3ccccc32)cc1`, the values for the IC50 in assay [1] and in assay [2] were 0.4 nM and 0.3 nM, respectively. The T1/2 in assay [3] is > 16 h.

In the case of `C[C@H]1CCCCN1c1nnc2ccc(O[C@@H]3CC[C@H](NC(=O)Nc4cc(C(C)(C)C)nn4-c4cncc(OCCN(C)C)c4)c4ccccc43)cn12`, the IC50 in assay [1] was 1 nM; in assay [2] it was 0.03 nM. The T1/2 in assay [3] is 5 h.

In the case of `CC(C)c1nnc2ccc(O[C@@H]3CC[C@H](NC(=O)Nc4cc(C(C)(C)C)nn4-c4ccc(O)c(Cl)c4)c4ccccc43)cn12`, the IC50 was found to be 1.1 nM in assay [1] and 0.08 nM in assay [2]. Also, the T1/2 in assay [3] came out at 1.31 h.

Consider `CC(C)c1nnc2ccc(O[C@@H]3CC[C@H](NC(=O)Nc4cc(C(C)(C)C)nn4-c4cccc(OCCO)c4)c4ccccc43)cn12`, for which the IC50 in assay [1] worked out at 1 nM; in assay [2] it was 0.4 nM. Further, the T1/2 in assay [3] was 1.9 h.

For `Cc1ccc(-n2nc(C(C)(C)C)cc2NC(=O)N[C@H]2CC[C@@H](Oc3ccc4nnc(N5CCN(C)CC5)n4c3)c3ccccc32)cc1`, the IC50 in assay [1] came out at 2.5 nM; in assay [2], 1 nM. Further, the T1/2 in assay [3] came to 9 h.

Take `C[C@H]1CCCCN1c1nnc2ccc(O[C@@H]3CC[C@H](NC(=O)Nc4cc(C(C)(C)C)nn4-c4cnn(CCN5CCCOCC5)c4)c4ccccc43)cn12`: the values for the IC50 in assay [1] and in assay [2] were 0.8 nM and 0.4 nM, respectively. Also, in assay [3], the T1/2 is > 16 h.

On to `CC(C)(C)c1cc(NC(=O)N[C@H]2CC[C@@H](Oc3ccc4nnc(N5CCCCC5)n4c3)c3ccccc32)n(-c2cccc(CO)c2)n1`, for which the IC50 in assay [1] turned out to be 0.2 nM; in assay [2], 0.6 nM. In assay [3], the T1/2 was > 16 h.

In the case of `CCN(C)CCn1cc(-n2nc(C(C)(C)C)cc2NC(=O)N[C@H]2CC[C@@H](Oc3ccc4nnc(N5CCCC[C@@H]5C)n4c3)c3ccccc32)cn1`, the IC50 in assay [1] came to 2.5 nM; in assay [2] it was 0.2 nM. Moreover, the T1/2 in assay [3] was 9 h.

With `C[C@@H]1CCCCN1c1nnc2ccc(O[C@@H]3CC[C@H](NC(=O)Nc4cc(C(C)(C)C)nn4-c4cccc(OCCN(C)C)c4)c4ccccc43)cn12`, the IC50 in assay [1] was determined as 1.6 nM; in assay [2], 0.2 nM. In addition, the T1/2 in assay [3] came out at 5.4 h.

For `COCCN(C)CCn1cc(-n2nc(C(C)(C)C)cc2NC(=O)N[C@H]2CC[C@@H](Oc3ccc4nnc(N5CCCC[C@@H]5C)n4c3)c3ccccc32)cn1`, the figures for the IC50 in assay [1] and in assay [2] were 0.9 nM and 0.2 nM, respectively. In addition, the T1/2 in assay [3] is > 16 h.

Take `C[C@H]1CCCCC1c1nnc2ccc(O[C@@H]3CC[C@H](NC(=O)Nc4cc(C(C)(C)C)nn4-c4cccc(CN5CCN(C)CC5)c4)c4ccccc43)cn12` (stereo partly specified): the IC50 in assay [1] came out at 1 nM; in assay [2], 0.3 nM. In addition, the T1/2 in assay [3] is > 16 h.

With `CC(C)(C)c1cc(NC(=O)N[C@H]2CC[C@@H](Oc3ccc4nnc(N5CCCCC5)n4c3)c3ccccc32)n(-c2cccc(CN3CCCCC3)c2)n1`, the IC50 was 1.9 nM in assay [1] and 1.3 nM in assay [2]. For the same compound, the T1/2 in assay [3] came to 1.2 h.

Turning to `CC(C)c1nnc2ccc(O[C@@H]3CC[C@H](NC(=O)Nc4cc(C(C)(C)C)nn4-c4cccc(OCCN(C)C)c4)c4ccccc43)cn12`, the IC50 in assay [1] came out at 9.1 nM; in assay [2], 0.8 nM. For the same compound, the T1/2 in assay [3] was 0.89 h.

`C[C@H]1CCCCN1c1nnc2ccc(O[C@@H]3CC[C@H](NC(=O)Nc4cc(C(C)(C)C)nn4-c4cnn(CCN5CCN(C)CC5)c4)c4ccccc43)cn12`: the results for the half-inhibitory concentration (IC50) in assay [1] and in assay [2] were 3.2 nM and 0.3 nM, respectively. For the same compound, the T1/2 in assay [3] is > 16 h.

With `Cc1ccc(-n2nc(C(C)(C)C)cc2NC(=O)N[C@H]2CC[C@H](Oc3ccc4nnc(C(C)C)n4c3)CC2)cc1`, the IC50 in assay [1] stood at 36 nM; in assay [2] it was 6.1 nM. The T1/2 in assay [3] is 0.09 h.
